{
  "source": "patent US20140221499A1",
  "about": "“NOVEL RODENT CONTROL AGENTS AND USES THEREOF” (priority 2011, published 2014)",
  "key": {"rTAAR8c": {"biological_target": "T1, rTAAR8c (Rattus norvegicus, UniProt Q923Y0)", "T1 construct": "Full Taar coding regions were cloned into pcDNA3.1; expressed in transfected cells; host or cells: HEK293", "T1 sequence (Q923Y0 1-344)": "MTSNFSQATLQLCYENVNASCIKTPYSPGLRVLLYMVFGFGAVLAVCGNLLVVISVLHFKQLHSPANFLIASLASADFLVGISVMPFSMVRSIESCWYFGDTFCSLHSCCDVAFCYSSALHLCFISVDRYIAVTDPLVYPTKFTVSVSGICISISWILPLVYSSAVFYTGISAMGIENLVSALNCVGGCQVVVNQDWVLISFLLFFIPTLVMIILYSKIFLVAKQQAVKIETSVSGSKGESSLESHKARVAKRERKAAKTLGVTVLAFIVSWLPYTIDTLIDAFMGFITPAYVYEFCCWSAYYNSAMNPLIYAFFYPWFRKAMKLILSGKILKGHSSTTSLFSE", "test": "CRE-SEAP reporter gene assay in HEK293 cells transfected with rTAAR8c", "assay_type": "cell-based", "conditions": "FIG. 11A, functional with or without 'Rho tag', EC50 ± s.e.m., 4-parameter Hill equation", "description": "(§1) FIG. 11 illustrates the dose-dependent responses of TAARs to amines. HEK293 cells were cotransfected with plasmids encoding CRE-SEAP and rTAARs (a) or mTAARs (b), incubated with concentrations of ligands indicated, and assayed for reporter activity (triplicates±s.d.). EC50 values (±s.e.m, bottom right) were calculated using SigmaPlot (Systat Software) and a 4-parameter Hill equation.\n(§2) The following mixes (10 μM of each indicated compounds) were tested for their ability to activate rat TAARs. Mix 1: butylamine, dibutylamine, hexylamine. Mix 2: 2-aminopentane, isoamylamine, isobutylamine, isopropylamine. Mix 3: N,N-dimethylcyclohexylamine, 1-methylindole, tryptamine, phenylethylamine. Mix 4: indole, 1-methylpyrrolidine, 1-methylpiperidine, pyrrolidine. […]\n(§3) Full Taar coding regions were cloned into pcDNA3.1-(Invitrogen) with or without a 5′ DNA extension of 69 bp encoding the first 20 amino acids of bovine rhodopsin followed by a cloning linker ([…]). […] Fluorescence was measured on an EnVision plate reader (Perkin Elmer) and SEAP activity graphed as relative fluorescence of a phosphatase substrate.\n(§4) Here, we set out to identify agonists for additional mouse and rat TAARs. […] Transfected cells were incubated with test chemicals, and phosphatase activity was quantified with a fluorescent substrate as a reporter for TAAR activation. […]"}, "rTAAR9": {"biological_target": "T2, rTAAR9 (Rattus norvegicus, UniProt Q923Y6)", "T2 construct": "Full Taar coding regions were cloned into pcDNA3.1; expressed in transfected cells; host or cells: HEK293", "T2 sequence (Q923Y6 1-338)": "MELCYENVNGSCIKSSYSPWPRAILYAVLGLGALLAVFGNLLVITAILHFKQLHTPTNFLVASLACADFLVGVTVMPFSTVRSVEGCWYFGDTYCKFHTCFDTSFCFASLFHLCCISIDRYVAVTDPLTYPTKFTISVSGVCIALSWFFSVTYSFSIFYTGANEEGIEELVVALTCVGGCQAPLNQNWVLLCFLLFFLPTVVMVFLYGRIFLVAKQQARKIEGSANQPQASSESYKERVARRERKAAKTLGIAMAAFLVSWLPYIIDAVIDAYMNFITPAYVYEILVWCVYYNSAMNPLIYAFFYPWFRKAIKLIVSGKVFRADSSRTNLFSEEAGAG", "test": "CRE-SEAP reporter gene assay in HEK293 cells transfected with rTAAR9", "assay_type": "cell-based", "conditions": "FIG. 11A, functional with or without 'Rho tag', EC50 ± s.e.m., 4-parameter Hill equation", "description": "as §1, §2, §3, §4"}, "mTAAR7b": {"biological_target": "T3, mTAAR7b (Mus musculus, UniProt Q5QD11)", "T3 sequence (Q5QD11 1-358)": "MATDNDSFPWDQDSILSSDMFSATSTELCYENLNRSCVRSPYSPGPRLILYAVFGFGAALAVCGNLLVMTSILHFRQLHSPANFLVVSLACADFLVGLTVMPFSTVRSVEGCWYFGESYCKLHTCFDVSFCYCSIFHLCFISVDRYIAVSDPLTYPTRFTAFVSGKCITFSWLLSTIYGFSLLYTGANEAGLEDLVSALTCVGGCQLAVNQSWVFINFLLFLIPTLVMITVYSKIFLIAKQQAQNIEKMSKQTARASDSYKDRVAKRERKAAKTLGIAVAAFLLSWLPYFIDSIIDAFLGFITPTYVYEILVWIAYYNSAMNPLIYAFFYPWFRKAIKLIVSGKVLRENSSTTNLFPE", "test": "CRE-SEAP reporter gene assay in HEK293 cells transfected with mTAAR7b", "assay_type": "cell-based", "design": "Full Taar coding regions were cloned into pcDNA3.1; expressed in transfected cells; host or cells: HEK293", "conditions": "FIG. 11B, functional with or without 'Rho tag', EC50 ± s.e.m., 4-parameter Hill equation", "description": "as §1\nChemicals tested for the ability to activate mouse TAARs include those previously described (Liberles, S. D., and Buck, L. B. (2006) A second class of chemosensory receptors in the olfactory epithelium, Nature 442, 645-650), as well as the following mixes (5 μM of each indicated compounds). Mix 1: N,N-dimethyl-cyclohexylamine, N,N-dimethyl-phenylethylamine, creatinine, taurine. […]\nas §3, §4"}, "rTAAR7h": {"biological_target": "T4, rTAAR7h (Rattus norvegicus, UniProt Q923Y4)", "T4 sequence (Q923Y4 1-358)": "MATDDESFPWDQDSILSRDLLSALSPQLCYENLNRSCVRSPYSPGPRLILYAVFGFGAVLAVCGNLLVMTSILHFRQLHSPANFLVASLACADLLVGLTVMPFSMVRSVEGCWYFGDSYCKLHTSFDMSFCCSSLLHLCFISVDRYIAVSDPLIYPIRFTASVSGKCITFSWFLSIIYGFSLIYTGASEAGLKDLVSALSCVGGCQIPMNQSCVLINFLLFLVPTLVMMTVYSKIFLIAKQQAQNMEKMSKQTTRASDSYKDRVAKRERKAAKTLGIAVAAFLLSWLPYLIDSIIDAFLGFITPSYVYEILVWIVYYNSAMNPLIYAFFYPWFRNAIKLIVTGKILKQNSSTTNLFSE", "test": "CRE-SEAP reporter gene assay in HEK293 cells transfected with rTAAR7h", "assay_type": "cell-based", "design": "Full Taar coding regions were cloned into pcDNA3.1; expressed in transfected cells; host or cells: HEK293", "conditions": "FIG. 11A, functional with or without 'Rho tag', EC50 ± s.e.m., 4-parameter Hill equation", "description": "as §1, §2, §3, §4"}, "TAAR5": {"biological_target": "T5, TAAR5 (Mus musculus, UniProt Q5QD14)", "T5 sequence (Q5QD14 1-337)": "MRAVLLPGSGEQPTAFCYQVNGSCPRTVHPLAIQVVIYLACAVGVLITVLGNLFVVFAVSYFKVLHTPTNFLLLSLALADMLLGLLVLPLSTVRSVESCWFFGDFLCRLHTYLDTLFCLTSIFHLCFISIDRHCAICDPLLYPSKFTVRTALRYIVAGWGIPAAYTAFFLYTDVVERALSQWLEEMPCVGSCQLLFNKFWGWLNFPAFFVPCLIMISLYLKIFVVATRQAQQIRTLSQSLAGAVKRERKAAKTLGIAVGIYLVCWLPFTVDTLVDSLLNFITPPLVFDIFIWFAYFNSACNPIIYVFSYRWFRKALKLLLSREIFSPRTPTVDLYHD", "conditions": "cited from earlier work"}},
  "data": [
    {"smiles": "CN1CCCCC1", "note": "[1-methylpiperidine]", "values": [
      {"measurement": "EC50", "setting": "rTAAR8c", "result": "0.08 ± 0.02", "unit": "µM"},
      {"measurement": "EC50", "setting": "rTAAR9", "result": "18.3 ± 0.4", "unit": "µM"}
    ]},
    {"smiles": "CCCCN(C)C", "note": "[N,N-DIMETHYLBUTYLAMINE, N,N-dimethylbutylamine]", "values": [
      {"measurement": "EC50", "setting": "mTAAR7b", "result": "20.1 ± 8.9", "unit": "µM"}
    ]},
    {"smiles": "CCCCCCCCN(C)C", "note": "[N,N-DIMETHYLOCTYLAMINE, N,N-dimethyloctylamine]", "values": [
      {"measurement": "EC50", "setting": "rTAAR7h", "result": "12.7 ± 6.2", "unit": "µM"}
    ]},
    {"smiles": "CN(C)C", "note": "[Trimethylamine, trimethylamine]", "values": [
      {"measurement": "TAAR5 activation", "setting": "TAAR5", "result": "activates TAAR5"}
    ]}
  ]
}
